Assay results: patent US12459900B2, “Compounds for treating conditions related to oxidative stress” (priority 2021, dated 2025)

What was measured:
[1] = DPPH antioxidant (free radical scavenging) assay; assay type: biochemical; conditions: duplicate, 5 concentrations, read at 517 nm; read-out: IC50 (DPPH assay, anti-oxidant activity)
Procedure: NWD-19, NWD-15, and NWD-14 were evaluated for antioxidant activity using the 2,2-diphenyl-1-picrylhydrazyl (DPPH) assay. The DPPH assay was used to predict antioxidant activities by mechanism in which antioxidants act to inhibit lipid oxidation, so scavenging of DPPH radical and therefore determinate free radical scavenging capacity. The DPPH antioxidant assay kit (Dokindo Molecular Technologies, Inc.) was used, and the plates were read at 517 nm on the BioTek Synergy HT plate reader (Gen5 software). All compounds were tested in duplicate at 5 concentrations to determine the anti-oxidant activity of each compound.

[2] = tested on: Primary retinal pigment endothelial cell line (RPE); assay: Protection from AAPH induced oxidative stress in RPE cells (viability, cell titer glo 2.0); assay type: cell-based; conditions: 1.25 μM NWD-19 pre-treatment overnight, AAPH 10 mM overnight
Procedure: Primary retinal pigment endothelial cell line (RPE) were plated in appropriate growth medium in a 96 well plate overnight (16-24 hrs). Once 80-90% confluence was achieved the cells were then treated with NWD-19 at a concentration range of 0.039 uM to 1.25 μM. Appropriate blanks were also added and the plate was incubated overnight in a CO2 (95%)/O2 (5%) incubator at 37° C. temperature. Following incubation all wells were treated with AAPH at 10 mM to induce oxidative stress and incubated overnight. After incubation the plate was assayed for viability using cell titer glo 2.0 assay (Promega).

RPE primary cells = assay: TBARS assay in RPE primary cells after AAPH induced oxidative stress; assay type: cell-based; conditions: AAPH 10 mM, activity up to 0.078 μM concentration
Procedure: Primary retinal pigment endothelial cell line (RPE) were plated in appropriate growth medium in a 96 well plate overnight (16-24 hrs). Cells were then treated with NWD-19 at 7 concentrations and incubated overnight. Following incubation all wells were treated with AAPH at 10 mM to induce oxidative stress and incubated overnight. The TBARS assay was then utilized to evaluate the anti-oxidant potential of the compound in the RPE cells at various concentrations.

[3] = tested on: Benzalkonium chloride induced dry eyes; assay: Benzalkonium chloride induced dry eyes in C57BL/6 mice; assay type: in vivo; conditions: daily topical drops 10 μM from day 8 to day 21 of 0.2% BAC treatment
Procedure: Benzalkonium chloride (BAC) is a commonly used preservative in ophthalmic solutions. However, it has been reported to increase the risk of dry eye disease due to its toxicity on the ocular surface, the conjunctiva, the cornea and even deeper ocular structures. 5 uL 0.2% BAC in mice eyes has been reported to cause dry eye symptoms without affecting aqueous tear production, inflammation, or corneal smoothness (Richard Zhang, et al. Dose-dependent benzalkonium chloride toxicity imparts ocular surface epithelial changes with features of dry eye disease, The Ocular Surface, Volume 18, Issue 1, 2020, Pages 158-169).
Symptoms of dry eye disease were induced in 24 male and female C57/BL6 mice for 21 days using 0.2% daily eye drops of BAC. Daily topical application of NWD-19 at 10 μM concentration started at day 8 post BAC treatment and continued until day 21, whereas the control mice eyes were treated with PBS during this period. […] At pre-dose and subsequently on days 7, 14 and 21 post dose the mice eyes were examined by a veterinary ophthalmologist for corneal lesions and dry eye was also evaluated using a drop of 0.1% fluorescein solution in each treated eye and observation and scoring using a cobalt blue filter. […]

CT-26 cells = assay: Cytotoxicity in CT-26 cancer cell line (cell titer glo 2.0); assay type: cell-based; conditions: Mus musculus, CT26; overnight incubation, triplicate, 6 concentrations; read-out: EC50 (percent survival, CT-26 cells)
Procedure: The CT-26 cell lines were plated at the appropriate pre-determined plating density in the 96 well plate and allowed to attach for about 16 hrs. After a suitable confluence was ensured (about 70-80%) the media was replaced with fresh media and the test compound was added to the plate in triplicate at 6 concentrations. Appropriate vehicle and positive controls were also added, and the plate was incubated overnight in a CO2 (95%)/O2 (5%) incubator at 37° C. temperature. After incubation the plate was assayed for cytotoxicity using cell titer glo 2.0 assay (Promega) on the BioTek Synergy HT plate reader (Gen5 software).

| IC50 [1] [nM] | SMILES | cell survival after AAPH induced oxidative stress [2] [%] | anti-oxidant activity in TBARS assay (malonaldehyde equivalents) (RPE primary cells) | condition of the eyes (corneal lesions, dry eye fluorescein scoring) compared to vehicle control eyes [3] | EC50 (CT-26 cells) [nM] |
| --- | --- | --- | --- | --- | --- |
| 2800 | O=c1cc(CCCC[P+](c2ccccc2)(c2ccccc2)c2ccccc2)[nH]n1-c1ccccc1 [NWD-14, (4-(5-oxo-1-phenyl-2,5-dihydro-1H-pyrazol-3-yl)butyl) triphenyl phosphonium bromide] | – | – | – | – |
| 2300 | CC1=NN(c2ccccc2)C(=O)C1CCCC[P+](c1ccccc1)(c1ccccc1)c1ccccc1 (stereo not shown) [NWD-15, (4-(3-methyl-5-oxo-1-phenyl-4,5-dihydro-1H-2l4-pyrazol-4-yl)butyl) triphenyl-phosphonium bromide] | – | – | – | – |
| 2100 | CC1=NN(c2ccccc2)C(=O)C1CCCCCCCCCC[P+](c1ccccc1)(c1ccccc1)c1ccccc1.[Br-] (stereo not shown) [NWD-19, (10-(3-methyl-5-oxo-1-phenyl-4,5-dihydro-1H-pyrazol-4-yl)decyl) triphenyl phosphonium bromide] | ~50 | significant anti-oxidant activity | masked improvement | 9600 |
